# Where two headings read alike, the source gives them in different places.
# What was measured:
# [1] = tested on: Multisystemic Atrophy (MSA) Type Parkinson (Type P); conditions: for Improvement of motor symptoms: UPDRS portion III, two months of therapy; for UPDRS portion III after therapy: five 100 mg/ml vials intramuscularly per week plus low doses of other group b vitamins and magnesium, two months, scale 0-56
# Protocol: We treated four patients affected by such pathology, two women and two men with five vials intramuscularly per week of vitamin B1. One vial included 100 mg/ml of thiamine. The injection was performed each morning for the first five days of the week. The dose was determined empirically based upon the disease progression rapidity.
# Moreover, low doses of all other vitamins of group b, including folic acid, 150 mg of magnesium citrate and 150 mg of magnesium malate, were associated to the treatment.
# The patients were evaluated with UPDRS (Unified Parkinson's Disease Rating Scale), scale validated for all Parkinson forms.
# The diagnoses were made by Italian primary neurological centres based upon anamnestic, clinical, evolutionary, neuroradiological and neurophysiological data.
# Dystonia 1 (DYT1) = conditions: for Fahn-Mardsen motion scale after treatment: scale 0-120; for Fahn-Mardsen disability scale after treatment: scale 0-30
# Protocol: The studied patients were two, a person and a person, parent and child. The disease is genetic and has a transmission of dominant type. The diagnosis was made in primary neurological centres based upon anamnestic, clinical and laboratory data.
# They were evaluated with Fahn-Mardsen scale of dystonia (Fahn-Mardsen Rating Scale). This scale consists of two sub-scales: 1) motion scale 2) disability scale. The first one ranges from 0 (no motion disorder) to 120 (maximum intensity and extension of the motion dystonic disorder). The second one ranges from 0 (no disability) to 30 (maximum disability)
# [2] = tested on: Sporadic spinocerebellar ataxia; conditions: for Improvement of motor symptoms: SARA, two months of therapy; for SARA scale after therapy: two vials of thiamine 100 mg/ml twice a week, two months, scale 0-40
# Protocol: The diagnosis was made by exclusion, by excluding the genetic forms of spino cerebellar ataxia and the tumour secondary forms.
# The patients were evaluated with SARA (Scale for Assessment and Rating of Ataxia), scale validated for all disorders of cerebellar type. The score of this scale ranges from 0 (absence of symptoms) to 40 (maximum deficit).
# The diagnoses were made by Italian primary neurological centres based upon the anamnestic, clinical, evolutionary, neuroradiological and neurophysiological and molecular chemistry data.
# [3] = patient P1, two months of treatment
# [4] = patient P2, two months of treatment
# [5] = patient P2, two months of treatment, before treatment 4
compound,measurement,setting,value
"Cc1ncc(C[n+]2csc(CCO)c2C)c(N)n1 [vitamin B1, thiamine]",Improvement of motor symptoms,[1]; patient N1 (person eleven),30.8%
same,UPDRS portion III after therapy,"[1]; patient N1 (person eleven), before therapy 26",18 scores
same,Improvement of motor symptoms,[1]; patient N2 (person ten),11.8%
same,UPDRS portion III after therapy,"[1]; patient N2 (person ten), before therapy 34",30 scores
same,Improvement of motor symptoms,[1]; patient N3 (person three),55.5%
same,UPDRS portion III after therapy,"[1]; patient N3 (person three), before therapy 9",5 scores
same,Improvement of motor symptoms,[1]; patient N4,47.6%
same,UPDRS portion III after therapy,"[1]; patient N4, before therapy 21",10 scores
same,improvement of disability scale,Dystonia 1 (DYT1); [3],35.8%
same,improvement of motion scale,Dystonia 1 (DYT1); [3],53.0%
same,Fahn-Mardsen motion scale after treatment,"Dystonia 1 (DYT1); patient P1, two months of treatment (dose not given), before treatment 66",31 scores
same,Fahn-Mardsen disability scale after treatment,"Dystonia 1 (DYT1); patient P1, two months of treatment, before treatment 14",9 scores
same,improvement of disability scale,Dystonia 1 (DYT1); [4],50.0%
same,improvement of motion scale,Dystonia 1 (DYT1); [4],50.0%
same,Fahn-Mardsen disability scale after treatment,Dystonia 1 (DYT1); [5],2 scores
same,Fahn-Mardsen motion scale after treatment,Dystonia 1 (DYT1); [5],2 scores
same,Improvement of motor symptoms,[2]; patient N1 (person nine),33.4%
same,SARA scale after therapy,"[2]; patient N1 (person nine), before therapy 9",6 scores
same,Improvement of motor symptoms,[2]; patient N2 (person four),50.0%
same,SARA scale after therapy,"[2]; patient N2 (person four), before therapy 6",3 scores

# — patent US20200281928A1, “VITAMIN B1 IN HIGH DOSES FOR USE IN THE MEDICAL TREATMENT OF MOTOR SYMPTOMS OF SOME SPORADIC NEURODEGENERATIVE DISEASES, OF GENETIC ORIGIN, AND OF CLUSTER HEADACHE AND OF MIGRAINE HEADACHE” (priority 2017, published 2020)
